Assay results reported in ChEMBL document CHEMBL3301361, “Experimental in vitro DMPK and physicochemical data on a set of publicly disclosed compounds”.
≈ marks a conversion by molar mass, not a printed value.

How the values were obtained:
physchem [1] = details: octan-1-ol/water, pH 7.4, LogD7.4
physchem [2] = details: pH 7.4 buffer
in vitro [3] = details: human
in vitro [4] = details: hepatocytes
in vitro [5] = details: human, plasma

| SMILES | logD (physchem [1]) | solubility thermodynamic (physchem [2]) [µM] | microsomal CLint (in vitro [3]; microsomes) [µL/min/mg] | hepatocyte CLint (in vitro [4]) [µL/min/1e6 cells] | fraction unbound at 5 h (in vitro [5]; PPB) | microsomal CLint (in vitro [3]; liver microsomes) [µL/min/mg] | fraction unbound at 5 h (in vitro [5]) |
| --- | --- | --- | --- | --- | --- | --- | --- |
| CN(C)CCNc1cc(-c2ccccc2)nc2cc(-c3ccc(F)cc3)nn12 | 4.5 | 2.1 (≈ 0.788 µg/mL) | 11.2 | 24 | – | – | – |
| Cc1cc(C)cc(-c2nnc(SCC(=O)N3CCN(C(=O)c4ccco4)CC3)o2)c1 | 3 | – | 67.6 | 89.1 | 0.0321 | – | – |
| COc1ccc2nc(C)cc(N3CC(CNC(=O)C4CC4)OC3=O)c2c1 (stereo not given) | 1.55 | – | 8.91 | 19.5 | 0.324 | – | – |
| O=C(O)Cc1ccc(N2CCC(CN3CCC(Oc4ccc(Cl)c(Cl)c4)CC3)CC2)cc1 | – | – | < 3 | 9 | 0.02 | – | – |
| CC(C)N(CCCNC(=O)Nc1ccc(C(C)(C)C)cc1)C[C@H]1O[C@@H](n2cnc3c(N)ncnc32)[C@H](O)[C@@H]1O | 2.2 | – | – | 26.9 | 0.285 | 112 | – |
| C[C@@H](C(N)=O)c1ccc(OS(=O)(=O)C(F)(F)F)cc1 | – | – | – | 3 | 0.134 | < 3 | – |
| C[C@H](NC(=O)c1cccc2c1N(Cc1ccc(Cl)cc1)CC2)c1ccc(C(=O)O)cc1 | 1.47 | – | – | 13.2 | 0.0133 | 15.8 | – |
| C[C@@H](C(=O)NCCN1CCCC1)c1ccc(OS(=O)(=O)C(F)(F)F)cc1 | 1.64 | – | – | 6 | 0.324 | < 3 | – |
| CCOc1ccc2oc(C(=O)NC(CCSC)c3nc4cnccc4[nH]3)c(C)c2c1 (stereo not given) | 4.31 | 10.5 (≈ 4.46 µg/mL) | – | 21 | – | 17 | – |
| Cc1cc(CN2CCc3ccccc3C2C(=O)Nc2ccc(Cl)cc2Cl)ccc1OCC(=O)O (stereo not given) | 2.63 | 166 (≈ 82.9 µg/mL) | 15 | 20 | – | – | – |
| O=C(CSc1nc2c(c(=O)n1-c1ccccc1)SCC2)Nc1ccc(-c2ccccc2)cn1 | – | – | > 150 | > 150 | 0.0017 | – | – |
| Cc1ccc(CNC(=O)C2CCCN2S(=O)(=O)c2ccc(F)cc2)cc1 (stereo not given) | 2.9 | 8.9 (≈ 3.35 µg/mL) | – | > 150 | – | > 150 | – |
| CNc1nc(C)c(-c2nc(Nc3cccc(N4CCCCC4)c3)ncc2C#N)s1 | – | – | – | > 150 | 0.0019 | 95.5 | – |
| Cn1c(-c2ccccc2C(F)(F)F)nnc1C12CCC(c3noc(-c4ccc(F)cc4)n3)(CC1)CC2 | – | 0.9 (≈ 0.448 µg/mL) | – | 7.94 | – | < 3 | – |
| C[C@H]1C[C@@H](NS(=O)(=O)c2cc(Br)ccc2Br)CN1C#N | 2.13 | 31.6 (≈ 13.4 µg/mL) | 16 | 39 | – | – | – |
| CCNC(=O)C[C@H]1N=C(c2ccc(Cl)cc2)c2cc(OC)ccc2-n2c(C)nnc21 | – | – | 11.5 | 6.31 | – | – | 0.069 |
| CCN(CC)CCn1c2ccccc2c2cnc(N)c(C#N)c21 | 2.7 | 58.9 (≈ 18.1 µg/mL) | 71 | 77 | – | – | – |
| COc1ccccc1C(=O)Nc1ccc(Cc2ccncc2)cc1 | – | – | 7 | 103 | 0.0024 | – | – |
| Cc1ccc(S(=O)(=O)Nc2c(C(=O)N[C@@H](C)C(C)(C)C)c(C)nn2C2CCCCC2)cc1 | 1.97 | 871 (≈ 401 µg/mL) | 33 | 8 | – | – | – |
| CCNC(=O)c1cnc(N2CCN(C3CCN(Cc4ccc(Cl)cc4F)CC3)[C@@H](CC)C2)c(Cl)c1 | – | 91.2 (≈ 47.7 µg/mL) | 11 | 38 | – | – | – |
| Oc1ncnc2c1c(-c1ccccc1)cn2-c1ccc(Br)cc1 | – | 1.6 (≈ 0.586 µg/mL) | – | 52.5 | – | 60.3 | – |
| CCc1nc2ccc(C(=O)NCc3ccc4c(c3)OCO4)cn2c1N(C)Cc1cccs1 | – | – | – | > 150 | 0.0035 | > 150 | – |

| SMILES | logD (physchem [1]) | solubility thermodynamic (physchem [2]) [µM] | microsomal CLint (in vitro [3]; microsomes) [µL/min/mg] | hepatocyte CLint (in vitro [4]) [µL/min/1e6 cells] | fraction unbound at 5 h (in vitro [5]; PPB) | microsomal CLint (in vitro [3]; liver microsomes) [µL/min/mg] | fraction unbound at 5 h (in vitro [5]) |
| --- | --- | --- | --- | --- | --- | --- | --- |
| Nc1nc2ccc(-c3ccncc3)cc2s1 | – | – | – | 29.5 | 0.119 | 20.4 | – |
| CC1(C)S[C@@H]2[C@H](NC(=O)C(C(=O)O)c3ccccc3)C(=O)N2[C@H]1C(=O)O (stereo not given in full) [CARBENICILLIN] | – | – | – | 3.39 | 0.546 | 6.92 | – |
| CN1CCC(Oc2cccc3ncnc(Nc4ccc(OCc5ccccn5)c(Cl)c4)c23)CC1 | – | 1.5 (≈ 0.714 µg/mL) | – | 11 | – | 22 | – |
| CN(C)c1nc(NC[C@H]2CC[C@H](CNS(=O)(=O)c3ccc(Br)cc3OC(F)(F)F)CC2)nc2ccccc12 | – | – | 117 | 50.1 | 0.0005 | – | – |
| CS(=O)(=O)c1ccc([C@@H](CC2CCCC2)C(=O)Nc2nccs2)cc1 [Ro-281675] | 3.86 | 5.5 (≈ 2.08 µg/mL) | 29.5 | 20.9 | – | – | – |
| CC[C@@H](Nc1c(Nc2cccc(C(=O)N(C)C)c2O)c(=O)c1=O)c1ccccc1 | 2.14 | 646 (≈ 254 µg/mL) | – | 65 | – | < 3 | – |
| Cc1nc2ccccn2c1-c1ccnc(N)n1 | – | 1510 (≈ 341 µg/mL) | 50.1 | 21.4 | – | – | – |
| N#CC1(NC(=O)[C@@H]2CCCC[C@H]2C(=O)N2CCc3[nH]c4ccc(F)cc4c3C2)CC1 | – | 525 (≈ 214 µg/mL) | – | 41.4 | – | 12.5 | – |
| Cc1[nH]c2ccc(-c3nnc(SCC(=O)N4CCCc5ccccc54)o3)cc2c1C | – | – | – | > 150 | – | > 150 | 0.0052 |
| COc1ccc(N(C(=O)Oc2c(C)cccc2C)c2ccnc(Nc3ccc(N4CCN(C)CC4)cc3)n2)c(OC)c1 | – | – | 27.5 | 35.5 | – | – | 0.0017 |
| CSCCC(NC(=O)c1cnccn1)c1nc2ccccc2[nH]1 (stereo not given) | – | – | – | 74 | 0.398 | 31 | – |
| O=C(CCOCCc1ccccc1)NCCNCCc1ccc(O)c2nc(O)sc12 | – | 1510 (≈ 650 µg/mL) | 25 | 72 | – | – | – |
| CCOc1nc2ccc(OCCC3CCN(c4ccc(C)nn4)CC3)cc2o1 | – | – | – | 4 | 0.0028 | 6 | – |
| COCCNc1nc(NCc2ccccc2F)c2sccc2n1 | – | – | – | 148 | – | > 150 | 0.028 |
| O=C(CSc1nc2c(c(=O)n1-c1ccccc1)SCC2)Nc1ncc(-c2ccccc2)s1 | – | – | – | 129 | 0.0023 | > 150 | – |
| COc1cc(C(=O)OCCCCNC(=N)N)cc(OC)c1O [LEONURINE] | – | – | – | 138 | 0.619 | < 3 | – |
| O=c1[nH]c2c(O)ccc([C@@H](O)CNCCc3cccc(CNCCc4ccccc4Cl)c3)c2s1 | 1.63 | 118 (≈ 58.5 µg/mL) | 19 | 42 | – | – | – |
| COc1ccc(-c2nc3c(NCCCN(C)C(=O)C4CCC4)c(Br)cnc3[nH]2)cc1 | – | – | – | 138 | 0.0022 | > 150 | – |
| C[C@]1(O)C[C@@H](c2nc(-c3ccc4ccc(-c5ccccc5)nc4c3)c3c(N)nccn32)C1 [LINSITINIB] | – | 1.3 (≈ 0.548 µg/mL) | – | 17 | – | 17.4 | – |
| Cc1c(C(=O)Nc2ccccc2)sc2ncnc(O)c12 | 2.13 | 22.4 (≈ 6.39 µg/mL) | – | > 150 | – | 5 | – |
| CN1CCN(CCOc2n[nH]c3ncnc(Nc4ccc(OCc5ccccn5)c(Cl)c4)c23)CC1 | 2.45 | 26.3 (≈ 13 µg/mL) | – | 13.5 | – | 30.2 | – |
| CS(=O)(=O)c1ccc([C@H](CC2CCCC2)C(=O)Nc2nccs2)cc1 | 3.88 | 5.8 (≈ 2.2 µg/mL) | 43.6 | 35.5 | – | – | – |
